US7078178B2, “Methods of altering calcium transport” (priority 1999, dated 2006)

Assays:
CaT1 mRNA = test: Northern analysis of CaT1 mRNA in rat duodenum in vivo
Description: Northern analysis procedures were as follows. Poly(A)^+ RNA (3 μg) from rat tissues were electrophoresed in formaldehyde-agarose gels and transferred to nitrocellulose membranes. The filters were probed with ^32P-labeled full-length CaT1 cDNA, hybridized at 42° C. with a solution containing 50% formamide, 5×SSPE, 2× Denhardt's solution, 0.1% SDS and 100 μg/ml denatured salmon sperm DNA (and washed with 5×SSC/0.1% SDS at 50° C. for 2×30 minutes and 0.1×SSC at 65° C. for 3×30 minutes. Autoradiography was performed at −80° C. for 1 to 2 days.

CaT1 [1] = target: T1, CaT1 (Rattus norvegicus, UniProt Q9R186); test: ^45Ca^2+ uptake assay in Xenopus laevis oocytes expressing CaT1; assay type: cell-based; conditions: for inhibition of ^45Ca^2+ uptake: cation 10 mM; for inhibition of ^45Ca^2+ uptake by di- and trivalent cations: 1 mM Ca^2+, cation 100 μM
T1 construct: ID; No. 4; expressed in transfected cells; host or cells: Xenopus laevis oocytes injected with synthetic cRNA of the cloned rat cDNA
T1 sequence (Q9R186 41-767): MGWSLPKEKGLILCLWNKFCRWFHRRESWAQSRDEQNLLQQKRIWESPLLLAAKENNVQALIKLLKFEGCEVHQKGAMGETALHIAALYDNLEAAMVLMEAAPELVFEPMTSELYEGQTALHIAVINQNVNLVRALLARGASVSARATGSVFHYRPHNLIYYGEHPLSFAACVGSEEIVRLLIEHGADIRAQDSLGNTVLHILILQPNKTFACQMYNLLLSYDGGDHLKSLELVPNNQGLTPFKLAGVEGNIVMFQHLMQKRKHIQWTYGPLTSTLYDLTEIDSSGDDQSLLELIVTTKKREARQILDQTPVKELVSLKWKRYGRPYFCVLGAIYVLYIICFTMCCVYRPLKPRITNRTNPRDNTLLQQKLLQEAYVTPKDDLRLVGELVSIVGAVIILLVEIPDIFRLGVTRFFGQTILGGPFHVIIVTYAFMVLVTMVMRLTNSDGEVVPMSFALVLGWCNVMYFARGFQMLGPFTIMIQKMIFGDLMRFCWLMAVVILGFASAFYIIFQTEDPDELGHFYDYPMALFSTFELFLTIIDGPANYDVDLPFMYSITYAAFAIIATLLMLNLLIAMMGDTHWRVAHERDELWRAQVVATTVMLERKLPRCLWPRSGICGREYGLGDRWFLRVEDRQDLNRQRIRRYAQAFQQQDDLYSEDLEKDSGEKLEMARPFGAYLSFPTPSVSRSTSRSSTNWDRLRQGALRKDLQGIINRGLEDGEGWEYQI
Description: ^45Ca^2+ uptake assay—Defolliculated Xenopus laevis oocytes were injected with either 50 nl of water or RNA. ^45Ca^2+ uptake was assayed 3 days after injection of poly(A)^+ or 1–3 days a injection of synthetic complementary RNA (cRNA). For expression cloning, oocytes were incubated in modified Barth's solution supplemented with 1 mM SrCl2 (to avoid excessive loading of oocytes with Ca^2+) as well as penicillin, streptomycin and gentamycin at 1 mg/ml. Standard uptake solution contained the following components (in mM): NaCl 100, KCl 2, MgCl2 1, CaCl2 1 (including ^45Ca^2+), Hepes 10, pH 7.5. Uptake was performed at room temperature for 30 minutes (for the expression cloning procedure, 2 hour uptakes were employed), and oocytes were washed 6 times with ice-cold uptake medium plus 20 mM MgCl2. […] Control experiments were performed with the appropriate ethanol and DMSO concentrations. Unless stated specifically, data are presented as means obtained from at least three experiments with 7 to 10 oocytes per group with standard error of the mean (S.E.M.) as the index of dispersion. Statistical significance was defined as having a P value of less than 0.05 as determined by Student's t-test.

CaT1 [2] = target: T1, CaT1; test: Two-microelectrode voltage clamp of oocytes expressing CaT1; assay type: cell-based; conditions: for current as percentage of the current evoked by 5 mM Ca^2+: 5 mM cation, EGTA-injected oocytes clamped at −50 mV, n=17; for currents evoked by metal ions / effect on Ca^2+-evoked currents: each at 100 μM
Description: (§1) Two-microelectrode voltage clamp experiments were performed using standard techniques (see Chen et al., J. Biol. Chem. 274:2773–2779 (1999)) using a commercial amplifier and pCLAMP software (Version 7, Axon Instruments, Inc., Foster City, Calif.). An oocyte was introduced into the chamber containing Ca^2+-free solution and was incubated for about 3 minutes before being clamped at −50 mV and subjected to measurements. In experiments involving voltage ramps or jumps, whole-cell current and voltage were recorded by digitizing at 300 μs/sample and by Bessel filtering at 10 kHz. When recording currents at a holding potential, digitization at 0.2 s/sample and filtering at 20 Hz were employed. Voltage ramping consisted of pre-holding at −150 mV for 200 ms to eliminate capacitive currents and a subsequent linear increase from −150 to +50 mV, with a total duration of […]. Voltage jumping consisted of 150 ms voltage pulses of between −140 and +60 mV, in increments of +20 mV. Steady-state currents were obtained as the average values in the interval from 135 to 145 ms after the initiation of the voltage pulses. For experiments involving voltage-clamped ^45Ca^2+ uptake, Ca^2+-evoked currents and uptake of ^45Ca^2+ were simultaneously measured at −50 mV, using a method similar to that described in Chen et al. (cited above).

[3] = test system: endogenous Ca^2+-activated chloride-channel currents; test: Block of the peak current in voltage-clamped oocytes by chloride channel blockers; assay type: cell-based, Xenopus laevis; conditions: 5 mM Ca^2+; holding potential −50 mV
Description: as §1, with “above). […]” for “above).”

Question: With `C=C1/C(=C\C=C2/CCC[C@]3(C)[C@@H]([C@H](C)CCCC(C)(C)O)CC[C@@H]23)C[C@@H](O)C[C@@H]1O` [1,25-dihydroxyvitamin D3] as the compound, how does the “regulation of CaT1 mRNA in rat duodenum” value (CaT1 mRNA) read?
Answer: The value was “not regulated”.

Question: How did the “inhibition of ^45Ca^2+ uptake” value (CaT1 [1]) turn out when `[Ba+2]` [Ba^2+] was run?
Answer: Its value is “only slight inhibitory effects”.

Question: And the “current as percentage of the current evoked by 5 mM Ca^2+” value (CaT1 [2])?
Answer: The value was 12±2%.

Question: Which Km (CaT1 [1]; CaT1 expressed in oocytes, read-out: apparent Michaelis constant (Km) of Ca^2+ uptake) does the source give for `[Ca+2]` [Ca^2+] here?
Answer: Its Km is 440 ± 70 µM.

Question: And the “plateau value of inward current” value (CaT1 [2]; 5 mM Ca^2+, holding potential −50 mV)?
Answer: Its value is 20–50 nA.

Question: For `COc1cc(CNC(=O)CCCC/C=C/C(C)C)ccc1O` [Capsaicin, capsaicin], which “stimulation of CaT1-mediated ^45Ca^2+ uptake in oocytes” value (CaT1 [1]; capsaicin up to 50 μM) is on record?
Answer: Its value is “did not stimulate”.

Question: Which results are given for `[Cd+2]` [Cd^2+]?
Answer: inhibition of ^45Ca^2+ uptake by di- and trivalent cations (CaT1 [1]): marked to moderate inhibition; currents evoked by metal ions (CaT1 [2]): did not evoke measurable currents; effect on Ca^2+-evoked currents (CaT1 [2]): inhibited

Question: For `[Co+2]` [Co^2+], which “inhibition of ^45Ca^2+ uptake by di- and trivalent cations” value (CaT1 [1]) is on record?
Answer: The value was “marked to moderate inhibition”.

Question: And the “currents evoked by metal ions” value (CaT1 [2])?
Answer: The value was “did not evoke measurable currents”.

Question: What about the “effect on Ca^2+-evoked currents” value (CaT1 [2]) of the same compound?
Answer: The value was “inhibited”.

Question: `[Cu+2]` [Cu^2+] was tested. Which “inhibition of ^45Ca^2+ uptake by di- and trivalent cations” value (CaT1 [1]) did it give?
Answer: Its value is “marked to moderate inhibition”.

Question: What about the “currents evoked by metal ions” value (CaT1 [2]) of the same compound?
Answer: Its value is “did not evoke measurable currents”.

Question: And the “effect on Ca^2+-evoked currents” value (CaT1 [2])?
Answer: Its value is “inhibited”.

Question: How did the “increase in Ca^2+ uptake” value (CaT1 [1]; EGTA injected into oocytes to a final concentration of 1–2 mM) turn out when `O=C(O)CN(CCOCCOCCN(CC(=O)O)CC(=O)O)CC(=O)O` [EGTA, ethylene glycol-bis(β-aminoethylether)-N,N,N′,N′-tetraacetic acid] was run?
Answer: Its value is “three- to five-fold increase”.

Question: What about the “effect on overshoot of Ca^2+-evoked inward current” value (CaT1 [2]; EGTA injected to a final concentration of 1–2 mM, −50 mV) of the same compound?
Answer: Its value is “abolished the overshoot”.

Question: `[Fe+3]` [Fe^3+] was tested. Which “inhibition of ^45Ca^2+ uptake by di- and trivalent cations” value (CaT1 [1]) did it give?
Answer: The value was “no significant effects”.

Question: What about the “currents evoked by metal ions” value (CaT1 [2]) of the same compound?
Answer: Its value is “did not evoke measurable currents”.

Question: And the “effect on Ca^2+-evoked currents” value (CaT1 [2])?
Answer: The value was “no observable effects”.

Question: Which results are given for `[Gd+3]` [Gd^3+]?
Answer: inhibition of ^45Ca^2+ uptake by di- and trivalent cations (CaT1 [1]): marked to moderate inhibition; currents evoked by metal ions (CaT1 [2]): did not evoke measurable currents; effect on Ca^2+-evoked currents (CaT1 [2]): inhibited

Question: Which results are given for `[La+3]` [La^3+]?
Answer: inhibition of ^45Ca^2+ uptake by di- and trivalent cations (CaT1 [1]): marked to moderate inhibition; currents evoked by metal ions (CaT1 [2]): did not evoke measurable currents; effect on Ca^2+-evoked currents (CaT1 [2]): inhibited

Question: Which “inhibition of ^45Ca^2+ uptake” value (CaT1 [1]) does the source give for `[Mg+2]` [Mg^2+] here?
Answer: Its value is “no significant inhibition”.

Question: And the “blocker of CaT1” value (CaT1 [2])?
Answer: The value was “nor an effective blocker”.

Question: And the “substrate of CaT1” value (CaT1 [2]; up to 20 mM)?
Answer: The value was “neither a substrate”.

Question: `[Mn+2]` [Mn^2+] was tested. Which “inhibition of ^45Ca^2+ uptake by di- and trivalent cations” value (CaT1 [1]) did it give?
Answer: The value was “no significant effects”.

Question: What about the “currents evoked by metal ions” value (CaT1 [2]) of the same compound?
Answer: The value was “did not evoke measurable currents”.

Question: What about the “effect on Ca^2+-evoked currents” value (CaT1 [2]) of the same compound?
Answer: Its value is “no observable effects”.

Question: How did the “Ca^2+ entry with extracellular Na^+” value (CaT1 [1]; non-clamped oocytes, Ca^2+ applied for 30 minutes) turn out when `[Na+]` [Na^+] was run?
Answer: The value was “enhanced”.

Question: And the “Ca^2+-evoked currents in the presence versus absence of Na^+” value (CaT1 [2]; 100 mM Na^+)?
Answer: Its value is “slightly lower”.

Question: With `[Ni+2]` [Ni^2+] as the compound, how does the “currents evoked by metal ions” value (CaT1 [2]) read?
Answer: The value was “did not evoke measurable currents”.

Question: What about the “effect on Ca^2+-evoked currents” value (CaT1 [2]) of the same compound?
Answer: Its value is “inhibited”.

Question: How did the “inhibition of ^45Ca^2+ uptake by di- and trivalent cations” value (CaT1 [1]) turn out when `[Pb+2]` [Pb^2+] was run?
Answer: The value was “marked to moderate inhibition”.

Question: And the “currents evoked by metal ions” value (CaT1 [2])?
Answer: The value was “did not evoke measurable currents”.

Question: And the “effect on Ca^2+-evoked currents” value (CaT1 [2])?
Answer: Its value is “inhibited”.

Question: What does the source list for `[Sr+2]` [Sr^2+]?
Answer: inhibition of ^45Ca^2+ uptake (CaT1 [1]): only slight inhibitory effects; current as percentage of the current evoked by 5 mM Ca^2+ (CaT1 [2]): 20±4%

Question: For `[Zn+2]` [Zn^2+], which “currents evoked by metal ions” value (CaT1 [2]) is on record?
Answer: Its value is “did not evoke measurable currents”.

Question: And the “effect on Ca^2+-evoked currents” value (CaT1 [2])?
Answer: The value was “no observable effects”.

Question: Which “block of the peak current” value [3] does the source give for `O=C(O)c1ccccc1Nc1cccc(C(F)(F)F)c1` [flufenamate] here?
Answer: Its value is “could be blocked”.

Question: Which “CaT1-mediated Ca^2+ activity relative to its baseline activity” value (CaT1 [1]; depletion of calcium stores by thapsigargin treatment) does the source give for `C/C=C(/C)C(=O)O[C@H]1C(C)=C2[C@H]([C@@H]1OC(=O)CCCCCCC)[C@@](C)(OC(C)=O)C[C@H](OC(=O)CCC)[C@@]1(O)[C@H]2OC(=O)[C@@]1(C)O` [thapsigargin] here?
Answer: The value was “about 20%”.
